Patent US6641783B1, “Chromatographic systems with pre-detector eluent switching” (priority 1999, dated 2003)

What was measured:
[1] = Capacity factor of the test solute on an immobilized artificial membrane HPLC column; assay type: physicochemical; details: EsterIAM.PC C10/C3 column, 15% acetonitrile in PBS, 1 mL/min
Description: (§1) The chromatographic process represents a reversible equilibrium of solutes between the mobile phases and the stationary phases. The magnitude of solute retention is a direct result from this equilibrium and is typically expressed by a parameter, the capacity factor, k′=(tr−to)/to where to is the dead time and tr is the retention time of the solutes. The capacity factor is therefore a stoichiometric mass distribution equilibrium of solutes between the mobile phases and the stationary phases, and its determination allows the calculation of various physicochemical values according to pre-determined algorithms.
(§2) Unless otherwise indicated, the experimental data reported in this section was collected under the following conditions: UV detection at 280 nm, UV flow cell: 14 μL, mobile phase: 15% acetonitrile in PBS buffer at 1 mL/min., injection volume: 10 μL (sample amount: 2 μg), eluent switch rate: 1 Hz/column, and one pump per column (one binary pump used at two different pumps).
(§3) Retention time data is reported as capacity factors k′=(tr−to)/to. The most critical preliminary data to obtain, however, was to experimentally determine the minimum peak washing times (volumes) needed to obtain good chromatographic peak characterization with the hardware designed and assembled as shown in FIG. 7. […]

[2] = Capacity factor of the test solute on a C8 HPLC column; assay type: physicochemical; details: 15% acetonitrile in PBS, 1 mL/min
Description: as §1, §2, §3

[3] = Eluent Switch (parallel chromatography), 1 Hz/column
[4] = No Switch (single column chromatography)

Structure (SMILES): COc1ccc(C)cc1 [4-methylanisole]
- k′ (Capacity factor) [1, 3]: 7.13
- k′ (Capacity factor) [1, 4]: 7.48
- k′ (Capacity factor) [2, 3]: 23.71
- k′ (Capacity factor) [2, 4]: 23.04
